Here are results for one compound from US4265829A, “Halogenated-naphthalenetriyltris(sulfonylimino)-aryl disulfonic acids and salts thereof” (American Cyanamid Company, priority 1979, dated 1981).

SMILES strings stand for the structures. Counter-ions that a name gives are not always drawn.

One test has as its target activated human C1 (Homo sapiens, UniProt P09871). In words: Test Code 026 (C1 inhibitor). Format: biochemical. Particulars: serial twofold dilution assay; higher well number indicates higher activity. The text has this:
(§1) An active inhibitor protects C2 from C1 and C4; (ii) Test Code 035 (C3-C9 inhibitor)--This test determines the ability of the late components of human complement (C3-C9) to lyse EAC 142 in the presence of appropriate dilutions of the test compound. An active inhibitor protects EAC 142 from lysis by human C3-C9; (iii) Test Code 036 (C-Shunt inhibitor)--In this test human erythrocytes rendered fragile are lysed in autologous serum via the shunt pathway activated by cobra venom factor in the presence of appropriate dilutions of the test compound. Inhibition of the shunt pathway results in failure of lysis; (iv) Forssman Vasculitis Test--Here, the well known complement dependent lesion, Forssman vasculitis, is produced in guinea pigs by intradermal injection of rabbit anti-Forssman antiserum. […] Percent inhibition is calculated by comparison with simultaneous controls. […]

The test system of test [1] is late components of human complement (C3-C9). In words: Test Code 035 (C3-C9 inhibitor). Type of test: biochemical. Particulars: serial twofold dilution assay; lysis of EAC 142; higher well number indicates higher activity.
Excerpt: as §1

Test [2] concerns shunt pathway activated by cobra venom factor. In words: Test Code 036 (C-Shunt inhibitor). Particulars: serial twofold dilution assay; human erythrocytes in autologous serum; higher well number indicates higher activity. Type of test: cell-based.
Excerpt: as §1

For test [3], the system named is serum complement activity. Put plainly: Guinea Pig Intraperitoneal Test (GPIP). Type of test: in vivo. Particulars: 200 mg./kg. i.p. The source says:
An active inhibitor protects C2 from C1 and C4; (ii) Test Code 035 (C3-C9 inhibitor)--This test determines the ability of the late components of human complement (C3-C9) to lyse EAC 142 in the presence of appropriate dilutions of the test compound. An active inhibitor protects EAC 142 from lysis by human C3-C9; (iii) Test Code 036 (C-Shunt inhibitor)--In this test human erythrocytes rendered fragile are lysed in autologous serum via the shunt pathway activated by cobra venom factor in the presence of appropriate dilutions of the test compound. Inhibition of the shunt pathway results in failure of lysis; (iv) Forssman Vasculitis Test--Here, the well known complement dependent lesion, Forssman vasculitis, is produced in guinea pigs by intradermal injection of rabbit anti-Forssman antiserum. The lesion is measured in terms of diameter, edema and hemorrhage and the extent to which a combined index of these is inhibited by prior intraperitoneal injection of the test compound at 200 mg./kg. is then reported, unless otherwise stated; (v) Forssman Shock Test--Lethal shock is produced in guinea pigs by an i.v. injection of anti-Forssman antiserum and the harmonic mean death time of treated guinea pigs is compared with that of simultaneous controls; (vi) Complement Level Reduction Test--In this test, the above dosed guinea pigs, or others, are bled for serum and the complement level is determined in undiluted serum by the capillary tube method of U.S. Pat. No. 3,876,376 and compared to undosed control guinea pigs; (vii) Cap 50 Test--Here, appropriate amounts of the test compound are added to a pool of guinea pig serum in vitro, after which the undiluted serum capillary tube assay referred to above is run. The concentration of compound inhibiting 50% is reported; (viii) Guinea Pig Intraperitoneal Test (GPIP)--Guinea pigs weighing about 300 g. are dosed intraperitoneally (i.p.) with 200 mg./kg. of the test compound dissolved in saline and adjusted to pH 7-8. […] Percent inhibition is calculated by comparison with simultaneous controls. […]

For the compound `O=S(=O)(O)c1cc(NS(=O)(=O)c2cc(S(=O)(=O)Nc3cc(S(=O)(=O)O)cc(S(=O)(=O)O)c3)c3c(Cl)ccc(S(=O)(=O)Nc4cc(S(=O)(=O)O)cc(S(=O)(=O)O)c4)c3c2)cc(S(=O)(=O)O)c1` [5,5',5"-[(8-Chloro-1,3,5-napthalenetriyl)tris (sulfonylimino)]-tri-1,3-benzenedisulfonic acid, hexasodium salt], the “Cl 026 Wells” value on activated human C1 was “+7 Wells”. Moreover, in test [1], the “C-Late 035 Wells” value is listed as “+1 Wells”. Further, the “Shunt Inhibition 036 Wells” value in test [2] was “+5 Wells”. Also, the “In Vivo Activity (Guinea Pig) % Inhibition Intraperitoneal, 30 minutes” value in test [3] (serum taken 30 minutes after injection) is reported as -67%. Besides, the “In Vivo Activity (Guinea Pig) % Inhibition Intraperitoneal, 60 minutes” value in test [3] (serum taken 60 minutes after injection) was -72%. The “In Vivo Activity (Guinea Pig) % Inhibition Intraperitoneal, 120 minutes” value in test [3] (serum taken 120 minutes after injection) was -81%.
